PubChem BioAssay (NCI)
Several values for one entry are separate records, joined by “and”; a condition that tells them apart may be missing. Identical values can stand only once.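 Values below derive from 48-hour exposures of cells grown in 96-well plates, with endpoints linearly interpolated between the two concentrations bracketing the appropriate inhibition level. GI50 is the concentration that inhibits growth by half. At the TGI there is no net growth.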

What was measured:
Test in all cases: growth of human tumour cells (NCI), 48 h
SF-539 CNS = system: SF-539 CNS
RXF 393 renal = system: RXF 393 renal
UACC-257 melanoma = system: UACC-257 melanoma
LOX IMVI melanoma = system: LOX IMVI melanoma
HOP-62 NSCLC = system: HOP-62 NSCLC
HCT-116 colon = system: HCT-116 colon
HCT-15 colon = system: HCT-15 colon
IGROV1 ovarian = system: IGROV1 ovarian
EKVX NSCLC = system: EKVX NSCLC
MDA-MB-231 breast = system: MDA-MB-231 breast

SMILES	TGI (SF-539 CNS) [µM]	TGI (RXF 393 renal) [µM]	TGI (UACC-257 melanoma)	TGI (LOX IMVI melanoma) [µM]	TGI (HOP-62 NSCLC) [µM]	TGI (HCT-116 colon)	TGI (HCT-15 colon) [µM]	TGI (IGROV1 ovarian) [µM]	TGI (EKVX NSCLC) [µM]	GI50 (SF-539 CNS) [µM]	GI50 (RXF 393 renal) [µM]	GI50 (UACC-257 melanoma) [µM]	GI50 (LOX IMVI melanoma) [µM]	GI50 (HOP-62 NSCLC) [µM]	GI50 (HCT-116 colon) [µM]	GI50 (HCT-15 colon) [µM]	GI50 (IGROV1 ovarian) [µM]	GI50 (EKVX NSCLC) [µM]	GI50 (MDA-MB-231 breast) [µM]	TGI (MDA-MB-231 breast) [µM]
COCC(=O)CP(=O)(OC)OC	> 100	> 100	> 100 µM	> 100	> 100	> 100 µM	> 100	> 100	> 100	–	–	–	–	–	–	–	–	–	–	–
CCOC(=O)C1(Cc2ccccc2)CCCCCN1 (stereo not drawn)	–	> 100	–	> 100	> 100	–	> 100	> 100	> 100	–	–	–	–	–	–	–	–	–	–	–
CCCCCC(=O)c1ccc2[nH]c3c(C)cc([N+](=O)[O-])c(C)c3c2c1	> 100	–	> 100 µM	> 100	> 100	> 100 µM	> 100	–	> 100	–	–	–	–	–	–	–	–	–	–	–
Cn1ncc2c(N)nc(N3CCCCC3)nc21	> 100	58.7	> 100 µM	51.4	> 100	> 100 µM	82.5	> 100	> 100	25.4	18.2	54.4	22.7	51.9	45.3	26.2	33.9	91.2	–	–
COc1cccc(C(=O)N2CCc3ccccc32)c1OC	> 100	> 100	> 100 µM	> 100	> 100	> 100 µM	61.9	> 100	> 100	–	–	–	–	–	–	–	–	–	–	–
Cc1c(C(=O)NCCO)[n+](=O)c2cc(Cl)ccc2n1[O-]	> 100	> 100	> 100 µM	> 100	> 100	> 100 µM	> 100	> 100	> 100	–	–	–	–	–	–	–	–	–	–	–
CCOc1ccc(/C=C(\Cl)c2ccc(OC)c(OC)c2)cc1	> 100	65.5	97.9 µM	–	> 100	> 100 µM	> 100	> 100	> 100	–	–	–	–	–	–	–	–	–	–	–
CN(C)CCCN1c2nc3ccccc3cc2Sc2cc3ccccc3nc21	2.97	–	3.53 µM	3.16	2.58	2.31 µM	2.87	–	3.23	1.61	–	1.76	1.55	1.29	1.1	1.33	–	1.5	1.41	2.75
COC1OC(CO)C(O)C(O)C1Br (stereo not drawn)	> 100	> 100	> 100 µM	> 100	> 100	> 100 µM	> 100	> 100	–	–	–	–	–	–	–	–	–	–	–	–
CN(CN1C(=O)C2Cc3ccccc3CN2C1=O)c1ccccn1 (stereo not drawn)	> 100	–	–	> 100	> 100	–	> 100	> 100	–	–	–	–	–	–	–	–	–	–	–	–
CC(=O)O[C@H]1CC[C@@]2(C)C(=CC[C@H]3[C@@H]4C/C(=C\c5cccc(OCCN6CCOCC6)c5)[C@H](OC(C)=O)[C@@]4(C)CC[C@@H]32)C1	13.9	–	5.04 µM	18.4	19.5	15.9 µM	11.5	80.2	36.7	3.64	–	2.79	5.94	6.29	4.1	2.95	25.6	11	3.12	13.3
CC(=O)OC1CC2C(C)(C)C(=O)C=C[C@]2(C)C2CCC3(C)C(c4ccoc4)C(=O)[C@H]4O[C@]43[C@]12C (stereo partly drawn)	39.9	47.5	–	42.6	42.7	28.7 µM	37.7	78.9	89.2	–	–	–	–	–	–	–	–	–	–	–
N=C(N=C(N)N)N1CCN(c2ccncc2)CC1	> 1000	–	> 1000 µM	> 1000	> 1000	> 1000 µM	> 1000	> 1000	–	> 1000	–	> 1000	> 1000	> 1000	> 1000	> 1000	> 1000	–	> 1000	> 1000
C1CCN(c2nsc(N3CCCCC3)n2)CC1	> 100	> 100	> 100 µM	> 100	> 100	> 100 µM	> 100	> 100	> 100	–	–	–	–	–	–	–	–	–	–	–
CN(C)C(N)=NC#N	> 100	74.8	> 100 µM	–	> 100	> 100 µM	34.8	> 100	> 100	–	–	–	–	–	–	–	–	–	–	–
C(CCC[Te][Te]CCCCCCOC1CCCCO1)CCOC1CCCCO1 (stereo not drawn)	32.1	–	20.7 µM	35.1	33.7	55.8 µM	60.6	48	–	–	–	–	–	–	–	–	–	–	–	–
C=C=C(CC)C(C(=O)OC)N(CC)CC (stereo not drawn)	> 100	> 100	> 100 µM	> 100	> 100	> 100 µM	–	> 100	> 100	–	–	–	–	–	–	–	–	–	–	–
N=c1nnc(=O)c2c(s1)-n1ncc(C(=O)O)c1NN2	> 100	> 100	–	–	> 100	> 100 µM	–	> 100	> 100	–	–	–	–	–	–	–	–	–	–	–
Cc1ccc(S(=O)(=O)NC(=O)NC23CC4CC(CC(F)(C4)C2)C3)cc1	> 100	> 100	> 100 µM	> 100	> 100	> 100 µM	–	> 100	> 100	–	–	–	–	–	–	–	–	–	–	–
O=C(O)/C(=C/c1c(O)ccc2ccccc12)c1csc(-c2nc(/C(=C\c3c(O)ccc4ccccc34)C(=O)O)cs2)n1	19.1	14	40.9 µM	43.4	22.2	23.3 µM	39	24.1	> 100	–	–	–	–	–	–	–	–	–	–	–
CC(=O)O[C@H]1CC[C@@]2(C)C(=CC[C@H]3C4=CC=C(C(C)=O)[C@@]4(C)CCC32)C1 (stereo partly drawn)	> 100	63.7	62.1 µM	43.8	> 100	36.9 µM	> 100	> 100	> 100	–	–	–	–	–	–	–	–	–	–	–
Cc1nc2ccc(Nc3nc(NCCN4CCOCC4)nc(Nc4ccc(F)cc4)n3)cc2n1Cc1ccccc1	3.23	4.07	3.27 µM	–	6.23	5.43 µM	5.68	46	–	1.63	1.59	1.74	–	1.88	2.02	2.16	5.59	–	1.71	3.71

SMILES	TGI (SF-539 CNS) [µM]	TGI (RXF 393 renal) [µM]	TGI (UACC-257 melanoma)	TGI (LOX IMVI melanoma) [µM]	TGI (HOP-62 NSCLC) [µM]	TGI (HCT-116 colon)	TGI (HCT-15 colon) [µM]	TGI (IGROV1 ovarian) [µM]	TGI (EKVX NSCLC) [µM]	GI50 (SF-539 CNS) [µM]	GI50 (RXF 393 renal) [µM]	GI50 (UACC-257 melanoma) [µM]	GI50 (LOX IMVI melanoma) [µM]	GI50 (HOP-62 NSCLC) [µM]	GI50 (HCT-116 colon) [µM]	GI50 (HCT-15 colon) [µM]	GI50 (IGROV1 ovarian) [µM]	GI50 (EKVX NSCLC) [µM]	GI50 (MDA-MB-231 breast) [µM]	TGI (MDA-MB-231 breast) [µM]
C(=N\OCc1ccccc1)/c1ncccc1C1OCCO1	> 100	> 100	> 100 µM	> 100	> 100	> 100 µM	> 100	> 100	> 100	–	–	–	–	–	–	–	–	–	–	–
O=C1O/C(=C(\Br)c2cccc3ccccc23)c2ccccc21	> 100	> 62.8	> 56.1 µM	> 100	> 100	> 61.9 µM	> 65.6	> 57.9	> 59.7	–	–	–	–	–	–	–	–	–	–	–
COc1ccc(-c2cc(/C=C3\C(=O)Nc4ccc(Cl)cc43)[nH]n2)cc1	7.68	19.1	21.4 µM	–	15.8	14.1 µM	14.2	17.9	–	2.63	5.61	8.78	–	4.39	4.13	2.8	5	–	3.58	15.5
O=C1C[C@@H]2C(COC(=O)c3ccccc3)N(OCc3ccccc3)C[C@@H]2O1 (stereo partly drawn)	> 100	> 100	> 100 µM	> 100	> 100	> 100 µM	> 100	> 100	> 100	–	–	–	–	–	–	–	–	–	–	–
NC(=O)N/N=C/C(/C=N/NC(N)=O)[N+](=O)[O-]	> 100	> 100	> 100 µM	> 100	> 100	> 100 µM	–	> 100	> 100	–	–	–	–	–	–	–	–	–	–	–
CC(=O)OCCOCNC(=S)N/N=C(\C)c1cnc2ccccc2n1	> 100	> 100	> 100 µM	> 100	> 100	> 100 µM	> 100	> 100	> 100	–	–	–	–	–	–	–	–	–	–	–
CCCCNN	–	> 100	> 100 µM	> 100	> 100	> 100 µM	> 100	> 100	> 100	–	–	–	–	–	–	–	–	–	–	> 100
CO/C1=C\C(C)=C\C(C)C(O)C(C)C/C(C)=C/C=C/C(OC)C(C(C)C(O)C(C)C2(O)CC(O)C(C)C(C(C)C)O2)OC1=O (stereo not drawn)	0.0827	–	0.0699 µM and 0.0653 µM	2.64e-05	0.000847	–	11.2	23.7	4.93	–	11.1	0.0248	–	–	–	–	–	–	–	–
CCNC(=O)C#CC(=O)NCC	> 100	> 100	> 100 µM	> 100	> 100	> 10 µM and 47.7 µM	> 61.4	> 100	> 100	> 10	> 100	> 10	> 10	–	> 10	> 10	–	> 10	–	–
Cc1nc2c(n1C(C)(C)C)C(=O)c1ccccc1C2=O	> 100	> 100	> 100 µM	> 100	> 100	> 100 µM	> 100	> 100	> 100	–	–	–	–	–	–	–	–	–	–	–
COc1ccccc1-c1cc(=O)c2ccccc2[nH]1	> 100	> 100	> 100 µM	> 100	> 100	> 100 µM	> 100	> 100	> 100	–	–	–	–	–	–	–	–	–	–	–
CC(C)(C)NCc1cc(C(C)(C)C)cc(-c2ccc(Cl)cc2)c1O	27.9	–	50.3 µM	–	20.1	26 µM	25.7	24.6	32.4	–	–	–	–	–	–	–	–	–	–	24.8
ClC(Cl)c1nc(-c2cccnc2)n2nc(-c3ccccc3)cc2n1	–	2.45	6.08 µM	–	6.44	6.29 µM	3.44	5.23	6.21	–	1.13	2.39	–	1.69	1.43	0.472	1.63	2.32	1.98	5.07
COc1cccc(NC(=O)CC(=O)N2N=C(N(CCC#N)c3ccccc3C)CC2c2ccccc2)c1 (stereo not drawn)	> 100	> 100	> 100 µM	–	> 100	> 100 µM	> 100	> 100	> 100	–	–	–	–	–	–	–	–	–	–	–
O=C(Nc1nc2ccccc2n1Cc1ccccc1)NC12CC3CC(CC(C3)C1)C2	> 100	93.8	> 100 µM	> 100	> 100	> 100 µM	> 100	> 100	> 100	–	–	–	–	–	–	–	–	–	–	–
CN1NC2(CCCCC2)ON=C1c1ccccc1	> 100	> 100	> 100 µM	> 100	> 100	> 100 µM	> 100	> 100	> 100	–	–	–	–	–	–	–	–	–	–	–
Cc1nc2sc(C(=O)Nc3cccc4ccccc34)c(N)c2cc1C(=O)c1ccccc1	2.71	–	> 50 µM	> 50	> 50	> 50 µM	> 50	> 50	> 50	1.06	–	> 50	2.56	2.53	1.68	1.41	1.8	2.95	2.19	> 50
O=C(O)CCCCCOc1cccnc1/C=N/NC1=NCCN1	> 100	> 100	> 100 µM	> 100	> 100	> 100 µM	> 100	> 100	> 100	–	–	–	–	–	–	–	–	–	–	–
COc1ccc2c(c1OC)C1=C(C2=O)c2cc3c(cc2CCN1)OCO3	61.2	> 100	> 100 µM	61.1	> 100	> 100 µM	> 100	> 100	> 100	–	–	–	–	–	–	–	–	–	–	–
CCC(=O)C(C)C1=Nc2nnc(CCCCCCCc3nnc4n3C(=O)C(C(C)C(=O)CC)=N4)n2C1=O (stereo not drawn)	> 100	> 100	> 100 µM	> 100	> 100	> 100 µM	> 100	> 100	> 100	–	–	–	–	–	–	–	–	–	–	–
CN(C)N1C(=O)c2ccccc2NC1c1ccccc1 (stereo not drawn)	> 100	–	> 100 µM	> 100	> 100	> 100 µM	> 100	> 100	> 100	–	–	–	–	–	–	–	–	–	–	> 100
